Assay results taken from patent publication US20050153976A1, “Pharmaceutical compositions” (SCHERING CORPORATION, priority 2003, published 2005).
Where “and” joins values, the source holds several entries; their conditions need not be identical. Equal entries are not always repeated.

Columns and labels:
[1] = Evaluation of suspension in 0.4% HPMC solution or water (pH, chemical and physical stability, re-suspensibility); type: physicochemical
Description: With proper ratios of carrier to compound, free flowing and uniform powders or solids can be produced. These powders or solids should have the original molecular characteristics of the adsorbed chemicals. The residual solvent (EtOH) used in this process can be reduced to 20 ppm level. These flowable powders or solids are suspended in an aqueous solution, such as 0.4% HPMC solution or water.
The flowable powders or solids have been tested to be very stable for at least two weeks chemically and physically at room temperature (RT) and ICH RH4 conditions (40° C. and 75% relative humility). The suspension solutions (SiO2-Compound or MCC-Compound in 0.4% HPMC solution or water) are also very stable both chemically and physically for at least two weeks at room temperature. The evaluation of SiO2-Compound and MCC-Compound are shown in Example 1.
Preparation of SiO2-Compound of Formula I samples may be carried out by the following representative steps. Uniformly mix 0.5 grams of API free form (amorphous) with 1.0 grams of SiO2 (Syliod®) 244 FP) in a container using a magnetic stirrer. Then add 5.0 mL of ethanol to the container to dissolve the compound completely. Stir at room temperature and dry the solution under N2 gas until a slurry is formed. Dry the slurry at increasing temperature beginning at 25° C. ending at 50° C. over a duration of 1 hour and at 50° C. for overnight under house vacuum. […]

[2] = Solubility of the compound in aqueous media and in organic solvents; type: physicochemical
Description: (§1) A particularly useful compound for use in the present invention is the compound represented by the chemical structural formula I comprising: [drawing 5] This compound is chemically known as 1-[(1-acetyl-4-piperidinyl)acetyl]-2(S)-(1,1-dimethylethyl)-4(S)*4-[phenyl [4(trifluoromethoxy)phenyl]methyl]piperazine and has a molecular weight of 559.3 g/mole. It is a weak base with a pKa of 4.0 corresponding to the ionization of the piperazine ring. The value of log P is 3.0 and the log D at pH 7.4 is calculated to be 2.9. […] The compound is very soluble in both ethanol and methanol (>150 mg/mL). The solubility in most common organic solvents, such as acetonitrile, dimethyl sulfoxide (DMSO), methylene chloride, ethyl acetate, isopropyl alcohol, hexane, and acetone, generally exceeds 50 mg/mL. The free form of the compound is amorphous, but a crystalline hydrogen sulfate salt of this compound can be made. The X-ray powder diffraction (XRPD) patterns of the amorphous free base and the crystalline hydrogen sulfate salt are shown in FIG. 1.

[3] = pKa and log P of the compound of formula I; type: physicochemical
Description: as §1

[4] = In-vivo pharmacokinetic (PK) studies; set-up: species or system rats and dogs; conditions: Dose 10 mg/kg
Description: In-vivo pharmacokinetic (PK) studies in rats and dogs with these compositions show better PK results in terms of AUC, Cmax, and dose proportionality than that of compound only.

- behaviour when suspended in 0.4% HPMC solution ([1]; SiO2 sample at 100 mg/mL, MCC sample at 102 mg/mL, free form as reference): forms a gum
- behaviour when suspended in aqueous media ([1]; aqueous media): forms a gum
- solubility ([2]; aqueous media, aqueous buffer, pH 4.0): 1.9 µg/mL and 3.4 µM
- solubility ([2]; aqueous media, pH 2.3, aqueous buffer): 74.6 µg/mL and 133 µM
- solubility ([2]; aqueous media, pH 7.4, aqueous buffer, pH greater than 7.4): < 1 µg/mL and < 2 µM
- solubility ([2]; organic solvent or mixture, in both ethanol and methanol): > 150 mg/mL
- solubility ([2]; organic solvent or mixture, most common organic solvents (acetonitrile, DMSO, methylene chloride, ethyl acetate, isopropyl alcohol, hexane, acetone)): > 50 mg/mL
- logP [3]: 3
- pKa ([3]; weak base, ionization of the piperazine ring): 4
- % AUC (infinity) [4]: 1.2%
- AUC(0-t) ([4]; in vivo): 2520 ng·h/mL and 4.5 µM·h
- Cmax ([4]; in vivo): 260 ng/mL and 500 nM
- Tmax ([4]; in vivo): 3.3 h
- AUC(0-inf) ([4]; in vivo, read-out: AUC (infinity)): 4.6 µM·h and 2550 ng·h/mL
SMILES: CC(=O)N1CCC(CC(=O)N2CCN(C(c3ccccc3)c3ccc(OC(F)(F)F)cc3)C[C@@H]2C(C)(C)C)CC1 (stereo partly drawn) [Compound of Formula I, 1-[(1-acetyl-4-piperidinyl)acetyl]-2(S)-(1,1-dimethylethyl)-4(S)*4-[phenyl [4(trifluoromethoxy)phenyl]methyl]piperazine]
